The record followed here is PubChem BioAssay (NCI).

Among the test systems are A498 renal; CCRF-CEM leukemia; COLO 205 colon; HL-60(TB) leukemia; HT29 colon; KM12 colon; MOLT-4 leukemia; NCI-H226 lung; OVCAR-4 ovarian; SN12C renal.
Common to all, as to experiment: NCI anticancer screen, dose series, 48 h

Several values for one entry are separate records, joined by “and”; a condition that tells them apart may be missing. Equal entries are not always repeated.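 Growth conditions: 96-well plates. Treatment: test compound, 48 hours, 5 concentrations. Analysis: linear interpolation between bracketing concentrations; unreached endpoints set to highest concentration. GI50 = concentration required for 50% inhibition of growth. TGI marks complete inhibition of growth.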 Some results are limits rather than exact numbers.

For `c1cc(C2CCCCC2)ccc1-c1cnc2nonc2n1`, the GI50 in the experiment on A498 renal is 0.565 µM; with CCRF-CEM leukemia it was 0.408 µM; with COLO 205 colon it was 1.99 µM; in the experiment on HL-60(TB) leukemia, 0.318 µM; in the experiment on HT29 colon, 0.603 µM; in the experiment on KM12 colon, 0.973 µM. Further, the GI50 in the experiment on MOLT-4 leukemia was 0.393 µM; in the experiment with NCI-H226 lung, 1.75 µM; in the experiment with OVCAR-4 ovarian, 0.856 µM; in the experiment on SN12C renal it was 1.1 µM. For the same compound, the TGI with A498 renal was 2.32 µM; in the experiment with CCRF-CEM leukemia it was over 93.8 µM; with COLO 205 colon, 6.39 µM; in the experiment with HL-60(TB) leukemia, 1.52 µM; in the experiment with HT29 colon, 3.27 µM; in the experiment on KM12 colon it was 3.65 µM. The TGI with MOLT-4 leukemia was over 56.5 µM; with NCI-H226 lung, 4.22 µM; in the experiment with OVCAR-4 ovarian, 2.28 µM; in the experiment on SN12C renal, 3.21 µM.
For `CC(=O)O[C@@H]1C2=C(C)C3(CC3)[C@@](C)(O)C(=O)C2=C[C@@]1(C)CO`, the GI50 was 1.8 µM with A498 renal; 0.475 µM in the experiment on CCRF-CEM leukemia; 1.22 µM with COLO 205 colon; 0.414 µM in the experiment on HL-60(TB) leukemia; 0.322 µM with HT29 colon; 1.32 µM in the experiment with KM12 colon. Moreover, the GI50 with MOLT-4 leukemia is 1.53 µM; with NCI-H226 lung, 2.12 µM; in the experiment on OVCAR-4 ovarian, 0.674 µM; in the experiment with SN12C renal, 1.86 µM. Besides, the TGI in the experiment on A498 renal is 3.53 µM; in the experiment on CCRF-CEM leukemia, over 22.5 µM; in the experiment on COLO 205 colon, 3.73 µM; with HL-60(TB) leukemia it was over 22.5 µM; with HT29 colon, over 100 µM; with KM12 colon, 8.59 µM. Also, the TGI is over 100 µM in the experiment on MOLT-4 leukemia, 5.22 µM with NCI-H226 lung, 4.44 µM in the experiment on OVCAR-4 ovarian and 13.9 µM in the experiment on SN12C renal.
`COC(=O)c1ccc(C(=O)OC)c2nc3cc(Cl)ccc3nc12`: the TGI in the experiment with A498 renal, in the experiment on CCRF-CEM leukemia, in the experiment with COLO 205 colon, in the experiment on HL-60(TB) leukemia, with HT29 colon and with KM12 colon was over 100 µM throughout. Further, the TGI in the experiment on MOLT-4 leukemia, in the experiment on NCI-H226 lung, in the experiment with OVCAR-4 ovarian and in the experiment with SN12C renal was over 100 µM in each case.
In the case of `CC(C)(C)C(=O)c1c(C(F)(F)F)n([O-])c2cc(Cl)c(Cl)cc2[n+]1=O`, the GI50 with A498 renal is 1.33 µM; in the experiment with CCRF-CEM leukemia it was 0.619 µM; in the experiment with COLO 205 colon, 0.683 µM; in the experiment on HL-60(TB) leukemia it was 0.188 µM; in the experiment on HT29 colon, 0.192 µM; in the experiment with KM12 colon, 0.19 µM. Besides, the GI50 in the experiment on MOLT-4 leukemia was 0.437 µM; with NCI-H226 lung, 1.6 µM; in the experiment with OVCAR-4 ovarian, 1.14 µM; with SN12C renal, 0.778 µM. Further, the TGI with A498 renal worked out at 2.6 µM; in the experiment with CCRF-CEM leukemia it was 1.19 µM; in the experiment on COLO 205 colon it was 1.69 µM; with HL-60(TB) leukemia, 0.446 µM; in the experiment with HT29 colon it was 0.546 µM; in the experiment on KM12 colon, 0.45 µM. Besides, the TGI in the experiment with MOLT-4 leukemia came out at 0.987 µM; in the experiment on NCI-H226 lung, 3.12 µM; in the experiment on OVCAR-4 ovarian, 2.37 µM; in the experiment on SN12C renal, 2.09 µM.
On to `O=C1C(Cl)=C(Cl)C(=O)N1c1cccc(C(F)(F)F)c1`, for which the TGI is over 100 µM in the experiment with A498 renal; over 85.3 µM with CCRF-CEM leukemia; over 100 µM in the experiment on COLO 205 colon; over 100 µM in the experiment on HL-60(TB) leukemia; over 100 µM in the experiment on HT29 colon; over 100 µM in the experiment on KM12 colon. Further, the TGI in the experiment on MOLT-4 leukemia was over 86.6 µM; in the experiment on NCI-H226 lung, over 100 µM; in the experiment on OVCAR-4 ovarian, over 100 µM; in the experiment on SN12C renal, over 100 µM.
In the case of `CCCS(=O)c1nc(COC(=O)NC)c(COC(=O)NC)n1C` (centres undefined), the TGI in the experiment with A498 renal, in the experiment with CCRF-CEM leukemia, in the experiment with COLO 205 colon, in the experiment on HL-60(TB) leukemia, with HT29 colon and in the experiment with KM12 colon was over 100 µM each time. Moreover, the TGI in the experiment with MOLT-4 leukemia, with NCI-H226 lung, with OVCAR-4 ovarian and in the experiment on SN12C renal was over 100 µM in each case.
As for `O=C(O)/C(Cl)=C(Cl)/C=N/NC(=O)c1cc2ccccc2cc1O`, the TGI in the experiment with A498 renal was over 100 µM; in the experiment on CCRF-CEM leukemia, 51.7 µM; in the experiment with COLO 205 colon, over 100 µM; with HL-60(TB) leukemia, over 100 µM; with HT29 colon it was over 100 µM; in the experiment with KM12 colon, over 100 µM. Further, the TGI in the experiment with MOLT-4 leukemia is 34.9 µM; in the experiment on NCI-H226 lung, 87.2 µM; with OVCAR-4 ovarian, 72 µM; in the experiment on SN12C renal, over 100 µM.
In the case of `NC(Cc1cccnn1)C(=O)O` (centres undefined), the TGI in the experiment with A498 renal, in the experiment with CCRF-CEM leukemia, in the experiment with COLO 205 colon, in the experiment on HL-60(TB) leukemia, in the experiment on HT29 colon and with KM12 colon was over 100 µM in each case. The TGI in the experiment with MOLT-4 leukemia, with NCI-H226 lung, with OVCAR-4 ovarian and in the experiment with SN12C renal was over 100 µM throughout.
With `Oc1ccc(Cl)cc1Sc1cc(Cl)ccc1O`, the GI50 in the experiment with A498 renal was 2.73 µM; in the experiment with CCRF-CEM leukemia, 2.59 µM; with COLO 205 colon it was 5.93 µM; in the experiment with HL-60(TB) leukemia, 3.19 µM; in the experiment with HT29 colon, 3.27 µM; in the experiment with KM12 colon, 3.26 µM. In addition, the GI50 in the experiment on MOLT-4 leukemia was 3.77 µM; in the experiment on NCI-H226 lung it was 4.09 µM; in the experiment with OVCAR-4 ovarian it was 3.4 µM; with SN12C renal, 3.16 µM. In addition, the TGI was 24.2 µM and 7.72 µM in the experiment with A498 renal; 55 µM and 12.8 µM in the experiment on CCRF-CEM leukemia; 39.9 µM and 20.2 µM in the experiment on COLO 205 colon; 37.3 µM and 7.52 µM in the experiment with HL-60(TB) leukemia; 33 µM and 12.6 µM in the experiment with HT29 colon; 31.4 µM and 9.18 µM with KM12 colon. Further, the TGI was > 100 µM and 24.7 µM with MOLT-4 leukemia; 41.9 µM and 19.2 µM in the experiment with NCI-H226 lung; 22.9 µM and 13.5 µM with OVCAR-4 ovarian; 27.4 µM and 10.4 µM with SN12C renal.
For the compound `C=C1C(=O)O[C@H]2[C@H]1CC/C(COC(=O)CCCCCCCC(=O)OC/C1=C/CC[C@@]3(C)O[C@H]3[C@H]3OC(=O)C(=C)[C@@H]3CC1)=C\CC[C@@]1(C)O[C@@H]21`, the GI50 is 12.3 µM in the experiment with A498 renal; 0.476 µM in the experiment on CCRF-CEM leukemia; 1.76 µM in the experiment with COLO 205 colon; 1.04 µM with HL-60(TB) leukemia; 2.02 µM with HT29 colon; 1.95 µM in the experiment with KM12 colon. For the same compound, the GI50 in the experiment with MOLT-4 leukemia is 0.791 µM; in the experiment on NCI-H226 lung, 2.63 µM; with OVCAR-4 ovarian it was 4.58 µM; in the experiment with SN12C renal, 2.75 µM. In addition, the TGI worked out at 28.7 µM in the experiment with A498 renal; 7.49 µM in the experiment on CCRF-CEM leukemia; 3.78 µM with COLO 205 colon; 4.87 µM with HL-60(TB) leukemia; 4.23 µM in the experiment with HT29 colon; 4.26 µM in the experiment with KM12 colon. In addition, the TGI in the experiment on MOLT-4 leukemia was found to be 11.4 µM; in the experiment with NCI-H226 lung, 6.97 µM; in the experiment on OVCAR-4 ovarian it was 20.1 µM; in the experiment on SN12C renal, 9.33 µM.
Regarding `CC(C)c1[nH]nc2c(NCc3ccc(-c4ccccn4)cc3)nc(SCCN)nc12`, the GI50 with A498 renal was 0.0306 µM and 0.0302 µM; with CCRF-CEM leukemia, 0.00978 µM; with HL-60(TB) leukemia it was 0.00469 µM; in the experiment on HT29 colon it was 0.00503 µM; with KM12 colon, 0.0175 µM and 0.0126 µM; in the experiment on MOLT-4 leukemia it was 0.00505 µM. For the same compound, the GI50 is 0.0404 µM and 0.0279 µM with NCI-H226 lung; 0.00585 µM in the experiment with OVCAR-4 ovarian; 0.0238 µM in the experiment with SN12C renal. Also, the TGI in the experiment on A498 renal is 0.0826 µM and 0.0876 µM; in the experiment with CCRF-CEM leukemia, 15.1 µM; in the experiment on COLO 205 colon it was 0.0342 µM; in the experiment on HL-60(TB) leukemia it was 0.0443 µM; in the experiment with HT29 colon it was 10.1 µM; in the experiment on KM12 colon, 10.3 µM. Moreover, the TGI with MOLT-4 leukemia was 0.169 µM and 0.102 µM; in the experiment with NCI-H226 lung, 0.0985 µM; in the experiment on OVCAR-4 ovarian, 0.394 µM and 1.41 µM; in the experiment with SN12C renal, 0.185 µM.
For `CC(C)c1[nH]nc2c(NCc3ccc(-c4ccccn4)cc3)nc(SCCN(C)C)nc12`, the GI50 with A498 renal is 0.0563 µM; in the experiment on CCRF-CEM leukemia, 0.0246 µM; with COLO 205 colon it was under 0.015 µM; in the experiment on HL-60(TB) leukemia it was under 0.0156 µM; in the experiment on HT29 colon, under 0.0158 µM; in the experiment with KM12 colon, under 0.0159 µM. The GI50 in the experiment on MOLT-4 leukemia is under 0.0178 µM; in the experiment on NCI-H226 lung, 0.24 µM; in the experiment with OVCAR-4 ovarian, 0.0349 µM; in the experiment with SN12C renal, under 0.0199 µM. Moreover, the TGI with A498 renal was determined as 0.164 µM; in the experiment with CCRF-CEM leukemia it was 4.87 µM; with COLO 205 colon, 0.0297 µM; in the experiment with HL-60(TB) leukemia it was 0.0313 µM; in the experiment with HT29 colon, 1.21 µM; with KM12 colon, 6.07 µM. Moreover, the TGI with MOLT-4 leukemia was determined as 0.202 µM; in the experiment on NCI-H226 lung it was 0.706 µM; in the experiment with OVCAR-4 ovarian, 1.53 µM; in the experiment on SN12C renal it was 12.3 µM.
In the case of `CC(=O)[CH-]C(=O)c1ccccc1.CC(=O)[CH-]C(=O)c1ccccc1.CC[C@H](/C=C/C(C)[C@H]1CCC2[C@@H]3CC=C4C[C@@H]([O-])CC[C@]4(C)C3CC[C@@]21C)C(C)C.CC[C@H](/C=C/C(C)[C@H]1CCC2[C@@H]3CC=C4C[C@@H]([O-])CC[C@]4(C)C3CC[C@@]21C)C(C)C.Cl.[Ti+4]` (some centres undefined), the GI50 in the experiment with A498 renal is over 25 µM; with CCRF-CEM leukemia, over 25 µM; in the experiment on COLO 205 colon, over 25 µM; with HL-60(TB) leukemia, 6.35 µM; in the experiment with HT29 colon it was over 25 µM; with KM12 colon it was over 25 µM. Moreover, the GI50 in the experiment with MOLT-4 leukemia, in the experiment with NCI-H226 lung, in the experiment with OVCAR-4 ovarian and in the experiment on SN12C renal was over 25 µM each time. For the same compound, the TGI in the experiment on A498 renal is over 25 µM; in the experiment on CCRF-CEM leukemia, over 25 µM; in the experiment on COLO 205 colon, over 25 µM; in the experiment on HL-60(TB) leukemia, 16.6 µM; in the experiment with HT29 colon, over 25 µM; in the experiment with KM12 colon, over 25 µM. In addition, the TGI in the experiment on MOLT-4 leukemia, in the experiment with NCI-H226 lung, in the experiment with OVCAR-4 ovarian and with SN12C renal was over 25 µM throughout.
